Laboratory results as given in ChEMBL document CHEMBL1132332, “A novel acetylated analogue of dynorphin A-(1-11) amide as a kappa-opioid receptor antagonist” (J Med Chem, 1999).
Square brackets hold non-standard residues; d marks the D form. Peptide text beside a SMILES is read from it.

Legend:
[1] = biological target: Delta-type opioid receptor (Homo sapiens, UniProt P41143); test: The compound was tested for binding affinity against Opioid receptor delta 1 by using [3H]- DPDPE as a radioligand
Delta-type opioid receptor, sequence (P41143 whole entry): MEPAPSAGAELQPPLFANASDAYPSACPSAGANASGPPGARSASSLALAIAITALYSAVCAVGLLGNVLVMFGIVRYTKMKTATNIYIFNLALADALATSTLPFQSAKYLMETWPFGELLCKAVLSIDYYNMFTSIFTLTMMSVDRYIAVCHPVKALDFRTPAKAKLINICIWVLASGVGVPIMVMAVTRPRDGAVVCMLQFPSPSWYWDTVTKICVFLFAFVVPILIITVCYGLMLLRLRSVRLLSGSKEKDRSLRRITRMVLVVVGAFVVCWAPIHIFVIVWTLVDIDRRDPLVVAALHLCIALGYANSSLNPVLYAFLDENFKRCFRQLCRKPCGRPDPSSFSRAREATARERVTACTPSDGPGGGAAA

[2] = biological target: Kappa-type opioid receptor (Homo sapiens, UniProt P41145); test: The compound was tested for binding affinity against Opioid receptor kappa 1 by using [3H]Diprenorphine as a radioligand
Kappa-type opioid receptor, sequence (P41145 whole entry): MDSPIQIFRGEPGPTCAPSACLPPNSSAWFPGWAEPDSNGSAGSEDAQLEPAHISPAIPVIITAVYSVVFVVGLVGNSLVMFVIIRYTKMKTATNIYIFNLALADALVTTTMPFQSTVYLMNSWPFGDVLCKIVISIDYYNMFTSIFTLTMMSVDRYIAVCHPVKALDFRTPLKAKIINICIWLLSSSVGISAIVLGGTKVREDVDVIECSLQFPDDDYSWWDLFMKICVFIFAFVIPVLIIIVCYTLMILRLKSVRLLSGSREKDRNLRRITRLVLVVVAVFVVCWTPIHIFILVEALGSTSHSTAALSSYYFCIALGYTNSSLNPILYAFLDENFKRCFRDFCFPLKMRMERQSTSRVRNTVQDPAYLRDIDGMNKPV

[3] = biological target: Mu-type opioid receptor (Homo sapiens, UniProt P35372); test: The compound was tested for binding affinity against Opioid receptor mu 1 by using [3H]DAMGO as a radioligand
Mu-type opioid receptor, sequence (P35372 whole entry): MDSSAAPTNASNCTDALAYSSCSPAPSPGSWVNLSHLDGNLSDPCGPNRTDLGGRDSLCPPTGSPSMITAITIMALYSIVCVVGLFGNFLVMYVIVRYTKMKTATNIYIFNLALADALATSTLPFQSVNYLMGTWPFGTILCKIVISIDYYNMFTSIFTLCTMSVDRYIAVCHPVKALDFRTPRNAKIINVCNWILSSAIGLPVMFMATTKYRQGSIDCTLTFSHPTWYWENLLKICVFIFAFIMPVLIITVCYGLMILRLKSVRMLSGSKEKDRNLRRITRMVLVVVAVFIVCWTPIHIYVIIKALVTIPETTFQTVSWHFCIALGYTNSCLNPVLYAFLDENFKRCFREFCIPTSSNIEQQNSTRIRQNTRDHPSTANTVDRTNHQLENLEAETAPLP

Row | Compound | Ki [1] | Ki [2] | Ki [3]
1 | CC(C)C[C@H](NC(=O)[C@H](Cc1ccccc1)NC(=O)CNC(=O)CNC(=O)[C@@H](N)Cc1ccc(O)cc1)C(=O)N[C@@H](CCCN=C(N)N)C(=O)N[C@@H](CCCN=C(N)N)C(=O)N[C@H](C)C(=O)N[C@@H](CCCN=C(N)N)C(=O)N1CCC[C@H]1C(=O)N[C@@H](CCCCN)C(N)=O | 12.2 nM | 0.19 nM | 1.97 nM
2 | CC(=O)N[C@@H](Cc1ccc(O)cc1)C(=O)N[C@@H](CCCCN)C(=O)N[C@@H](Cc1c[nH]c2ccccc12)C(=O)N[C@@H](Cc1c[nH]c2ccccc12)C(N)=O (Ac-YKWW-NH2) | 3480 nM | 1370 nM | 3590 nM
3 | CC(=O)N[C@@H](Cc1ccc(O)cc1)C(=O)N[C@@H](CCCCN)C(=O)N[C@@H](Cc1c[nH]c2ccccc12)C(=O)N[C@@H](Cc1c[nH]c2ccccc12)C(=O)N[C@@H](CC(C)C)C(=O)N[C@@H](CCCN=C(N)N)C(=O)N[C@@H](CCCN=C(N)N)C(=O)N[C@H](C)C(=O)N[C@@H](CCCN=C(N)N)C(=O)N1CCC[C@H]1C(=O)N[C@@H](CCCCN)C(N)=O (Ac-YKWWLRR[dA]RPK-NH2) | 5320 nM | 19.8 nM | 251 nM
